Measured values: patent publication US7273866B2, “2-aryl thiazole derivatives as KCNQ modulators” (Bristol-Myers Squibb Company, priority 2002, dated 2007)

Tested on: KCNQ channels
Test: Thallium flux assay for KCNQ channel openers
Assay type: cell-based
Details: HEK-293 cells stably transfected with a KCNQ family member; for Min. conc. response: minimal active concentration: lowest concentration giving signal amplitude >= four standard deviations of negative controls; for EC50: thallium flux, 10 point concentration series
Experimental: Thallium Flux Assay for KCNQ channel Openers. The thallium assay is a modification of that published by Weaver and is referenced in its entirety (Weaver, C. D. WO 02/31508, 2002).
Approximately 20,000 cells/well of an HEK-293 cell line stably transfected with one of the members of the KCNQ family were plated into clear-bottom, black-walled, poly-D-lysine coated, 384 well assay plates in 20 μl/well of low chloride plating medium. Low chloride plating medium was composed of the following: sodium gluconate, 109 mM; potassium gluconate, 5.4 mM; hemi-calcium gluconate, 3.6 mM; magnesium sulfate, 0.8 mM; sodium bicarbonate, 26.2 mM; sodium phosphate monobasic, 1.2 mM; glutamine, 2 mM; glucose, 5 mM; 4-(2-hydroxyethyl)-1-piperazineethanesulfonic acid (HEPES) (pH 7.3) 10 mM, MEM vitamin solution (10× concentration of vitamins, Gibco/LifeTechnologies 11120-052) and MEM amino acid solution (1× concentration of amino acids, Gibco/LifeTechnologies 11130-051).
Following overnight incubation in a 5% CO2 incubator at 37° C., the cells in the plates were loaded with 20 μl/well of a dye loading solution containing the commercially available thallium-sensitive fluorescent dye BTC-AM, the acetomethoxy ester of BTC (see U.S. Pat. No. 5,501,980) (2 μM) and pluronic acid F-127 (Molecular Probes P 6867) (0.02% w/v) in chloride free assay buffer. Chloride free assay buffer was composed of the following: sodium gluconate, 140 mM; potassium gluconate, 2.5 mM; hemi-calcium gluconate, 6 mM; hemi-magnesium gluconate, 2 mM; glucose, 5 mM; HEPES (pH 7.3), 10 mM.
Following incubation in the dye loading solution for from 45-90 min at room temperature, the dye loading solution was removed by aspiration and replaced with 40 μl/well of chloride free assay buffer.
Prior to addition to cell plates, test compound and standard compounds were dissolved in DMSO to 3 mM concentration. Compounds were then diluted from the 3 mM stock to 100-fold over the final assay concentration in DMSO. Finally, compounds in DMSO were diluted from 100-fold over the final assay concentration to 5-fold over the final assay concentration in chloride free assay buffer.
Ten μl/well of compounds at 5-fold over the final assay concentration were then added to the cell plates. This represents a 1:5 dilution, yielding the final test concentration. The wells used for test compounds were A1-P20. Wells A21-P22 contained a standard opener and a maximally efficacious concentration (positive control). Wells A23-P24 contained chloride free assay buffer containing 1% DMSO (negative control).
Following addition of test compounds, the plates were loaded onto the Molecular Devices FLIPR. The 488 nm line of the argon laser was used to excite the BTC and the emission filter was a 540(+/−30) nm. Images were collected at 1 Hz. Ten seconds of baseline were collected and then the FLIPR was used to add 13 μl/well of a stimulus buffer composed of 7.5 mM Tl2SO4 in chloride free assay buffer. Images were collected for an additional 60 seconds.
For data analysis, the amplitude of the average of the negative controls was subtracted from all wells. The amplitudes of the test compounds were then compared to the value of four standard deviations of the negative control wells. The lowest concentration of a test compound sufficient to generate a signal amplitude greater than or equal to four standard deviations from the amplitude of the negative controls was defined as the minimal active concentration.
For generating EC50 values, compounds were serially diluted in 1:3 volume increments to produce a 10 point concentration series. EC50 values were calculated by fitting the resulting amplitudes to a single-site logistic equation. EC50 was defined as the concentration of test compound required to yield 50% of the maximal response. Maximal response (Maximal opening) was the largest signal amplitude divided by the negative control amplitude generated by any concentration of a test compound. […]

EC50 [nM]	SMILES	Min. conc. response [µM]
50 to 1000	COc1ccc(F)cc1-c1nc(C(F)(F)F)c(C(=O)NC(C)c2cccc(OC(F)(F)F)c2)s1 (stereo not shown) [Example 41, 2-(5-fluoro-2-methoxyphenyl)-4-(trifluoromethyl)-N-[1-[3-(trifluoromethoxy)phenyl]ethyl]-5-thiazolecarboxamide]	10
50 to 1000	COc1ccc(F)cc1-c1nc(C(F)(F)F)c(C(=O)NC(C)c2cccc(N(C)C)c2)s1 (stereo not shown) [Example 42, 2-(5-fluoro-2-methoxyphenyl)-4-(trifluoromethyl)-N-[1-[3-(dimethylamino)phenyl]ethyl]-5-thiazolecarboxamide]	10
50 to 1000	COc1ccc(F)cc1-c1nc(C(F)(F)F)c(C(=O)NC(C)c2cccc(C(F)(F)F)c2)s1 (stereo not shown) [Example 43, 2-(5-fluoro-2-methoxyphenyl)-4-(trifluoromethyl)-N-[1-[3-(trifluoromethyl)phenyl]ethyl]-5-thiazolecarboxamide]	3
50 to 1000	COc1ccc(F)cc1-c1nc(C(F)(F)F)c(C(=O)NCc2cccc(F)c2)s1 [Example 44, 2-(5-fluoro-2-methoxyphenyl)-4-(trifluoromethyl)-N-[(3-fluorophenyl)methyl]-5-thiazolecarboxamide]	3
1000 to 20000	COc1cccc(CNC(=O)c2sc(-c3cc(F)ccc3OC)nc2C(F)(F)F)c1 [Example 45, 2-(5-fluoro-2-methoxyphenyl)-4-(trifluoromethyl)-N-[(3-methoxyphenyl)methyl]-5-thiazolecarboxamide]	3
1000 to 20000	COc1ccc(F)cc1-c1nc(C(F)(F)F)c(C(=O)NCc2cccc(OC(F)(F)F)c2)s1 [Example 46, 2-(5-fluoro-2-methoxyphenyl)-4-(trifluoromethyl)-N-[(3-trifluoromethoxyphenyl)methyl]-5-thiazolecarboxamide]	10
1000 to 20000	COc1ccc(F)cc1-c1nc(C(F)(F)F)c(C(=O)N[C@@H](C)c2cccc(N3CCOCC3)c2)s1 [Example 47, (S)-2-(5-fluoro-2-methoxyphenyl)-4-(trifluoromethyl)-N-[1-[3-(4-morpholinyl)phenyl]ethyl]-5-thiazolecarboxamide]	3
50 to 1000	COc1cccc([C@H](C)NC(=O)c2sc(-c3cc(F)ccc3OC)nc2C(F)(F)F)c1 [Example 48, (S)-2-(5-fluoro-2-methoxyphenyl)-4-(trifluoromethyl)-N-[1-[3-(methoxy)phenyl]ethyl]-5-thiazolecarboxamide]	3
50 to 1000	CC(NC(=O)c1sc(-c2ccccc2Cl)nc1C(F)(F)F)c1cccc(OC(F)(F)F)c1 (stereo not shown) [Example 49, 2-(2-chlorophenyl)-4-(trifluoromethyl)-N-[1-[3-(trifluoromethoxy)phenyl]ethyl]-5-thiazolecarboxamide]	0.3
50 to 1000	CC(NC(=O)c1sc(-c2ccccc2Cl)nc1C(F)(F)F)c1cccc(N(C)C)c1 (stereo not shown) [Example 50, 2-(2-chlorophenyl)-4-(trifluoromethyl)-N-[1-[3-(dimethylamino)phenyl]ethyl]-5-thiazolecarboxamide]	0.3
50 to 1000	CC(NC(=O)c1sc(-c2ccccc2Cl)nc1C(F)(F)F)c1cccc(C(F)(F)F)c1 (stereo not shown) [Example 51, 2-(2-chlorophenyl)-4-(trifluoromethyl)-N-[1-[3-(trifluoromethyl)phenyl]ethyl]-5-thiazolecarboxamide]	0.3
50 to 1000	C[C@H](NC(=O)c1sc(-c2ccccc2Cl)nc1C(F)(F)F)c1cccc(N2CCOCC2)c1 [Example 52, 2-(2-chlorophenyl)-4-(trifluoromethyl)-N-[1-[3-(4-morpholinyl)phenyl]ethyl]-5-thiazolecarboxamide]	3
1000 to 20000	CC(NC(=O)c1sc(-c2ccccc2Cl)nc1C(F)(F)F)c1cccc(CN2CCOCC2)c1 (stereo not shown) [Example 53, 2-(2-chlorophenyl)-4-(trifluoromethyl)-N-[1-[3-(4-morpholinylmethyl)phenyl]ethyl]-5-thiazolecarboxamide]	3
1000 to 20000	CCN(CC)CCOc1ccccc1-c1nc(C(F)(F)F)c(C(=O)NCc2cccc(F)c2)s1 [Example 54]	0.3
1000 to 20000	COc1cccc(C(C)NC(=O)c2sc(-c3ccccc3N3CCOCC3)nc2C(F)(F)F)c1 (stereo not shown) [Example 55, 2-[2-(4-morpholinyl)phenyl]-4-(trifluoromethyl)-N-[1-[3-(methoxy)phenyl]ethyl]-5-thiazolecarboxamide]	0.3
50 to 1000	CC(NC(=O)c1sc(-c2ccccc2N2CCOCC2)nc1C(F)(F)F)c1cccc(C(F)(F)F)c1 (stereo not shown) [Example 56, 2-[2-(4-morpholinyl)phenyl]-4-(trifluoromethyl)-N-[1-[3-(trifluoromethyl)phenyl]ethyl]-5-thiazolecarboxamide]	0.3
50 to 1000	CC(NC(=O)c1sc(-c2ccccc2N2CCOCC2)nc1C(F)(F)F)c1cccc(OC(F)(F)F)c1 (stereo not shown) [Example 57, 2-[2-(4-morpholinyl)phenyl]-4-(trifluoromethyl)-N-[1-[3-(trifluoromethoxy)phenyl]ethyl]-5-thiazolecarboxamide]	0.3
50 to 1000	CC(NC(=O)c1sc(-c2ccc(N3CCOCC3)cc2)nc1C(F)(F)F)c1cccc(OC(F)(F)F)c1 (stereo not shown) [Example 58, 2-[4-(4-morpholinyl)phenyl]-4-(trifluoromethyl)-N-[1-[3-(trifluoromethoxy)phenyl]ethyl]-5-thiazolecarboxamide]	30
50 to 1000	CCN(Cc1ccncc1)Cc1ccccc1-c1nc(C(F)(F)F)c(C(=O)NCc2cccc(OC(F)(F)F)c2)s1 [Example 59]	3
50 to 1000	CCN(Cc1ccncc1)Cc1ccccc1-c1nc(C(F)(F)F)c(C(=O)N[C@@H](C)c2cccc(OC)c2)s1 [Example 60]	0.3
50 to 1000	CCN(CC)Cc1cccnc1-c1nc(C(F)(F)F)c(C(=O)NC(C)c2cccc(OC(F)(F)F)c2)s1 (stereo not shown) [Example 61, 2-[3-(diethylaminomethyl)pyridin-2-yl]-4-(trifluoromethyl)-N-[1-[3-(trifluoromethoxy)phenyl]ethyl]-5-thiazolecarboxamide]	30
50 to 1000	CCN(Cc1ccncc1)Cc1cccnc1-c1nc(C(F)(F)F)c(C(=O)N[C@@H](C)c2cccc(N3CCOCC3)c2)s1 [Example 62]	3
50 to 1000	CCN(Cc1ccncc1)Cc1cccnc1-c1nc(C(F)(F)F)c(C(=O)NC(C)c2cccc(CN3CCOCC3)c2)s1 (stereo not shown) [Example 63]	30
50 to 1000	C[C@@H]1CN(c2cccc([C@H](C)NC(=O)c3sc(-c4ncccc4CN4CCOCC4)nc3C(F)(F)F)c2)C[C@H](C)O1 [Example 64, (S)-2-[3-(4-morpholinylmethyl)pyridin-2-yl]-4-(trifluoromethyl)-N-[1-[3-(2,6-dimethyl-4-morpholinyl)phenyl]ethyl]-5-thiazolecarboxamide]	10
50 to 1000	CCN(Cc1cccnc1-c1nc(C(F)(F)F)c(C(=O)N[C@@H](C)c2cccc(N3C[C@@H](C)O[C@@H](C)C3)c2)s1)C(C)C [Example 65]	10
50 to 1000	CCN(Cc1ccncc1)Cc1cccnc1-c1nc(C(F)(F)F)c(C(=O)N[C@@H](C)c2cccc(N3C[C@@H](C)O[C@@H](C)C3)c2)s1 [Example 66]	3
